Test results reported in the supplement of paper PMC10307832.

Legend:
Assay in all cases: relative viability (nuclei count vs DMSO), 5 days (fraction); higher = more cells survive
[1] = compound: CCn1c(-c2nonc2N)nc2cnc(Oc3cccc(NC(=O)c4ccc(OCCN5CCOCC5)cc4)c3)cc21 + CS(=O)(=O)CCNCc1ccc(-c2ccc3ncnc(Nc4ccc(OCc5cccc(F)c5)c(Cl)c4)c3c2)o1 [Lapatinib] (partner 2 µM)
Procedure, shortened: (§1)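 For relative viability, nuclei counts in treated wells were divided by those in vehicle wells. Lung cancer cell lines had been pin-tool dosed in 1536-well plates the day after seeding and cultured for 5 days, then fixed and stained in one step (final 0.05% Triton X-100, 1% formaldehyde, 1 ug/ml Hoechst) and imaged at 4×. Doses were one drug alone or a fixed anchor-drug dose plus five library-drug doses (not always all listed) in √10 steps, and values are duplicate-plate medians.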

Mirin + Linsitinib = compound: N=C1NC(=O)/C(=C/c2ccc(O)cc2)S1 [Mirin] + C[C@]1(O)C[C@@H](c2nc(-c3ccc4ccc(-c5ccccc5)nc4c3)c3c(N)nccn32)C1 [Linsitinib] (partner 1 µM)
Procedure, shortened: as §1

[2] = compound: CCC1=CN=CN=C1N2CCN(CC2)CC3=NC4=C(N3)C=C(C=C4)C(F)(F)F + C[C@@H](Oc1cc(-c2cnn(C3CCNCC3)c2)cnc1N)c1c(Cl)ccc(F)c1Cl [Crizotinib] (partner 1 µM)
Procedure, shortened: as §1

Mirin + Tozasertib = compound: N=C1NC(=O)/C(=C/c2ccc(O)cc2)S1 [Mirin] + Cc1cc(Nc2cc(N3CCN(C)CC3)nc(Sc3ccc(NC(=O)C4CC4)cc3)n2)n[nH]1 [Tozasertib] (partner 0.1 µM)
Procedure, shortened: as §1

Cell Line | relative viability ([1]; first compound 0.04 µM) | relative viability ([1]; first compound 0.1265 µM) | relative viability ([1]; first compound 0.4 µM) | relative viability ([1]; first compound 1.265 µM) | relative viability ([1]; first compound 4 µM) | relative viability (Mirin + Linsitinib; first compound 0.25 µM) | relative viability (Mirin + Linsitinib; first compound 2.5 µM) | relative viability (Mirin + Linsitinib; first compound 7.906 µM) | relative viability (Mirin + Linsitinib; first compound 25 µM) | relative viability ([2]; first compound 0.04 µM) | relative viability ([2]; first compound 0.1265 µM) | relative viability ([2]; first compound 0.4 µM) | relative viability ([2]; first compound 1.265 µM) | relative viability ([2]; first compound 4 µM) | relative viability (Mirin + Tozasertib; first compound 0.25 µM) | relative viability (Mirin + Tozasertib; first compound 0.7906 µM) | relative viability (Mirin + Tozasertib; first compound 2.5 µM) | relative viability (Mirin + Tozasertib; first compound 7.906 µM) | relative viability (Mirin + Tozasertib; first compound 25 µM) | relative viability (Mirin + Linsitinib; first compound 0.7906 µM)
LOU-NH91 | 0.817 | 0.77 | 0.537 | 0.518 | 0.517 | 0.956 | 1.01 | 0.936 | 1.04 | 0.695 | 0.696 | 0.761 | 0.779 | 0.801 | 0.661 | 0.614 | 0.673 | 0.465 | 0.42 | 
LU99A | 1.15 | 0.845 | 0.641 | 0.862 | 0.694 | 0.515 | 0.508 | 0.46 | 0.421 | 0.543 | 0.53 | 0.541 | 1 | 1.09 | 0.241 | 0.216 | 0.27 | 0.207 | 0.18 | 0.472
LXF-289 | 1.04 | 1.02 | 0.856 | 0.737 | 0.645 | 0.971 | 1 | 1.03 | 1.02 | 0.823 | 0.754 | 0.825 | 0.781 | 0.87 | 0.214 | 0.241 | 0.156 | 0.128 | 0.151 | 1.09
NCI-H23 | 1.34 | 1.17 |  | 0.688 | 0.698 | 0.618 | 0.573 | 0.612 | 0.543 | 0.591 | 0.559 | 0.574 | 0.689 | 0.989 | 0.496 |  | 0.427 | 0.288 | 0.256 | 
NCI-H322M | 0.572 | 0.659 | 0.437 | 0.876 | 0.783 | 0.891 | 0.976 | 1.04 | 0.651 | 0.956 | 0.868 | 0.918 | 0.896 | 1.37 | 0.509 | 0.524 | 0.569 | 0.447 | 0.401 | 1.08
NCI-H358 | 0.474 | 0.479 | 0.29 | 0.525 | 0.316 | 0.734 | 0.836 | 0.57 | 0.373 | 0.581 | 0.73 | 0.92 | 1.15 | 1.68 | 0.11 | 0.0924 | 0.114 | 0.0872 | 0.106 | 0.719
NCI-H460 | 1.93 | 0.994 | 0.656 | 0.202 | 0.299 | 0.809 | 0.764 | 0.649 | 0.474 | 1.06 | 1.03 | 0.886 | 0.832 | 1.14 | 0.386 | 0.393 | 0.402 | 0.229 | 0.221 | 0.759
NCI-H520 | 1 | 0.897 | 0.632 | 0.385 | 0.312 | 0.969 | 0.946 | 0.803 | 0.638 | 0.73 | 0.784 | 0.837 | 0.796 | 1.12 | 0.407 | 0.5 | 0.469 | 0.47 | 0.352 | 0.921
NCI-H596 | 1.04 | 0.942 | 0.978 | 0.87 | 0.97 | 0.975 | 1.03 | 1.11 | 0.902 | 0.91 | 1.06 | 0.971 | 1 | 1.14 | 1.05 | 0.953 | 0.972 | 1.13 | 0.866 | 0.919
NCI-H647 | 1.26 | 0.774 | 0.634 | 0.526 | 0.548 | 1.37 | 1.19 | 1 | 0.63 | 1.12 | 1.13 |  | 1.04 | 1.19 | 0.23 | 0.224 | 0.185 | 0.165 | 0.165 | 1.44
NCI-H650 | 1.29 | 0.686 | 0.5 | 0.269 | 0.472 | 0.942 | 0.941 |  | 0.956 | 0.741 | 0.724 | 0.765 | 0.757 | 1.1 | 0.684 | 0.557 | 0.707 |  | 0.51 | 
NCI-H661 | 0.47 | 0.457 | 0.457 | 0.39 | 0.385 | 0.432 | 0.613 | 0.451 | 0.414 | 0.996 | 0.943 | 0.964 | 0.951 | 1.1 | 0.351 | 0.367 | 0.344 | 0.337 | 0.327 | 0.58
NCI-H727 | 1.12 | 0.894 | 0.339 | 0.868 | 0.569 | 0.328 | 0.3 | 0.383 | 0.333 | 0.986 | 0.863 | 0.712 |  | 0.919 | 0.705 | 0.629 | 0.661 | 0.543 | 0.553 | 0.39
NCI-H838 | 0.804 | 0.485 | 0.323 | 0.281 | 0.261 | 1.01 | 1.12 | 1.1 | 0.761 | 0.917 | 0.845 | 0.908 | 0.947 | 1.27 | 0.265 | 0.303 | 0.213 | 0.23 | 0.203 | 1.14
NCI-H1355 | 1.07 | 0.978 | 0.712 | 0.62 | 0.597 | 0.799 | 0.975 | 0.861 | 0.747 | 1.07 | 1.01 | 1 | 1.14 | 1.15 | 0.526 | 0.637 | 0.533 | 0.394 | 0.272 | 0.852
NCI-H1437 | 0.826 | 0.679 | 0.58 | 0.536 | 0.5 | 1.09 | 1.07 | 0.784 | 0.33 | 0.969 | 0.799 | 0.964 | 0.903 | 0.752 | 0.451 | 0.407 | 0.372 | 0.343 | 0.377 | 1.01
